Reference: patent US5268003A (priority 1992, dated 1993)

How the values were obtained:
[1] = Bleaching of tea (BC-1) stained cotton in Terg-o-tometer, reflectance change; conditions: 10 ppm A.O.; for BC-1 ΔΔR pH 8: pH 8, 40° C.; for BC-1 ΔΔR pH 8 / BC-1 ΔΔR pH 9 / BC-1 ΔΔR pH 10: P-Surf base (1.5 g/l), 15 minutes, average of duplicates; for BC-1 ΔΔR pH 9: pH 9, 40° C.; for BC-1 ΔΔR pH 10: pH 10, 40° C.
Procedure: (§1) The bleaching performance of the peracids was evaluated against common stains such as tea (BC-1) and ink. Typically the cotton test pieces (3"×4") were stained with the appropriate stain and washed in a Terg-o-tometer for 15 minutes at 40° C. in a 500 mL aqueous wash solution. Dosage of the peracid was 10 ppm active oxygen.
Stain bleaching was measured reflectometrically using a Colorgard System/05 Reflectometer. Bleaching was indicated by an increase in reflectance, reported as ΔΔR. In general a ΔΔR of one unit is perceivable in a paired comparison while ΔΔR of two units is perceivable monadically. In reporting the reflectance change, the change in reflectance caused by general detergency has been accounted for. Thus ΔΔR can actually be expressed as:
ΔΔR=ΔR peracid+detergent-ΔR detergent
where ΔR is the reflectance difference of the stained fabric after and before washing.
BC-1 experiments were run in duplicate and the value shown is an average. In order to ensure that the solids were as finely dispersed as possible, one of the BC-1 experiments of each pair was usually conducted by predissolving the peracid in 1 ml of DMF; if this value was within 1 unit of the experiment using finely ground peracid, the values were averaged.
(§2) Bleaching Results at 40° C., 10 ppm A.O., P-Surf base (1.5 g

[2] = Bleaching of ink stained cotton in Terg-o-tometer, change in B-axis of Hunter color scale; conditions: pH 9, 40° C., 10 ppm A.O., P-Surf base (1.5 g/l), 15 minutes; corrected for detergent control
Procedure: as §1
Ink stain bleaching was measured as ΔB where the quantity ΔB is the change in the B-axis of the Hunter color scale. The ink stain is initially blue and loses color with bleaching thereby increasing the value of ΔB. Recorded ΔΔB values are ΔB values corrected for the cleaning accomplished by the detergent control.
as §2

[3] = heavy-duty liquid detergent, pH 4.5

| Compound | BC-1 ΔΔR pH 8 [1] | BC-1 ΔΔR pH 8 (DMF value in parenthesis) ([1]; pH 8, peracid predissolved in 1 ml of DMF, 40° C., P-Surf base) | BC-1 ΔΔR pH 9 [1] | BC-1 ΔΔR pH 9 (DMF value in parenthesis) ([1]; pH 9, peracid predissolved in 1 ml of DMF, 40° C., P-Surf base) | BC-1 ΔΔR pH 10 [1] | INK ΔΔB pH 9 [2] | t1/2 at 40° C. [3] [days] |
| --- | --- | --- | --- | --- | --- | --- | --- |
| O=C(Nc1ccccc1NC(=O)c1ccc(C(=O)OO)cc1)c1ccc(C(=O)OO)cc1 [1,2-PCBPD, N,N'-Di(4-percarboxybenzoyl)-1,2-phenylenediamine] | 4.4 | 8.1 | 4.1 | 6.5 | 3.9 | 24.9 | 33 |
| O=C(CCCCC(=O)OO)Nc1ccc(NC(=O)CCCCC(=O)OO)cc1 [DPAPD, N,N'-Di(percarboxyadipoyl)phenylenediamine] | 7.1 |  | 6.7 |  | 4.0 | 8.0 | 32 |
| O=C(Nc1ccc(C(=O)OO)cc1)c1ccc(C(=O)Nc2ccc(C(=O)OO)cc2)cc1 [DPCAT, N,N'-Di(4-Percarboxyaniline)terephthalate] | 1.6 |  | 1.5 |  | 2.3 | 3.1 | 65 |
| O=C(CCCCCN1C(=O)c2ccccc2C1=O)OO [PAP, N-phthaloylamino peroxycaproic acid, reference compound] |  |  |  |  |  |  | 3 |
| O=C(NCCCCNC(=O)c1ccc(C(=O)OO)cc1)c1ccc(C(=O)OO)cc1 [PCBBD, N,N'-Di(4-percarboxybenzoyl)-1,4-butanediamine] | 9.5 |  | 9.4 |  | 6.0 | 28.9 | 15 |
| O=C(NCCNC(=O)c1ccc(C(=O)OO)cc1)c1ccc(C(=O)OO)cc1 [PCBED, N,N'-Di(4-Percarboxybenzoyl)ethylenediamine] | 10.6 |  | 9.0 |  | 5.9 | 19.1 |  |
| O=C(N[C@H]1CC[C@H](NC(=O)c2ccc(C(=O)OO)cc2)CC1)c1ccc(C(=O)OO)cc1 [PCBHEX, N,N'-Di(4-percarboxybenzoyl)-1,4-diaminocyclohexane] | 0.9 |  | 2.1 |  | 3.1 | 4.2 |  |
| O=C(OO)c1ccc(C(=O)N2CCN(C(=O)c3ccc(C(=O)OO)cc3)CC2)cc1 [PCBPIP, N,N'-Di(4-percarboxybenzoyl)piperazine] | 3.0 |  | 2.9 |  | 3.1 | 9.7 | 79 |
| O=C(CCC(=O)Nc1ccc(C(=O)OO)cc1)Nc1ccc(C(=O)OO)cc1 [SDPCA, N,N'-Succinoyl-di(4-percarboxy)aniline] | 2.7 |  | 3.3 |  | 5.0 | 16.8 | 43 |
